How the values were obtained:
[1] = system: C57BL/6J mice injected with AAV (LacZ transgene); experiment: In vivo mouse AAV model: CD8 TEM and lacZ tetramer staining of PBMCs and splenocytes; settings: chow 30 mg/kg from 15 days prior to AAV injection; day 14 post AAV; versus AAV group; N=10
Method: (§1) In-vivo mice experiments. C57BL/6J mice were purchased from Jackson Laboratories. 6-8-week male mice were divided into 3 groups—PBS group, AAV group and AAV+IRAK4 group all groups with 10 mice each. Zimlovisertib IRAK4 inhibitor (Synonyms: PF-06650833) Cat. No.: HY-19836 (MedChemExpress) was mixed with mouse chow Catalog #2016, Teklad Global 16% Protein Rodent Diets https://www.inotivco.com/rodent-natural-ingredient-2016-diets at a dose of 30 mg/kg. AAV+IRAK4 group was fed the chow with Zimlovisertib IRAK4 inhibitor 15 days prior to AAV injection whereas PBS and AAV group were fed with mouse chow Catalog #2016, Teklad Global 16% Protein Rodent Diets https://www.inotivco.com/rodent-natural-ingredient-2016-diets. PBS group mice were injected intramuscularly with 100 ul PBS, AAV group was injected intramuscularly with 1e11 vg per quadricep muscle of both legs, 100 ul volume.
The same experiment design was followed with n=6 mice in each group PBS group, AAV group and AAV+IRAK4 degrader PROTAC IRAK4 degrader-1 Cat. No.: HY-129966 (MedChemExpress) that was mixed with chow at 100 mg/kg and fed to mice 15 days prior to AAV injection. […] AAV capsid used in the study had LacZ transgene. All animal experiments were conducted in accordance with the Institutional Animal Care and Use Committees at Sanofi, Framingham. Submandibular bleeds were performed weekly, and necropsy was performed three weeks post AAV injection.
PBMC isolation and surface staining. 120 ul blood was collected in K2EDTA coated tubes. The blood was mixed with DBPS at 1:1 ration and pipetted into a separate tube containing Ficoll (GE17-5442-02) to ensure no mixing of the blood and Ficoll phases. The mixture was centrifuged at 2000 RPM for 25 minutes at room temperature (9 acceleration and no braking). The buffy coat containing the peripheral blood mononuclear cells (PBMCs) was collected, transferred to a new tube, and centrifuged for five minutes at 400 RCF. PBMCs were washed three times with phosphate buffered saline (PBS) containing 1% fetal bovine serum (FBS) or fetal calf serum (FCS) and counted. The PBMC cells thus obtained were stained with different antibodies to quantify percentage of different immune cell subsets in peripheral blood.
PBMC CD8 TEM and lacZ tetramer staining. The PBMC was isolated from ˜120 μl of mouse blood, and it was transferred to a 96-well U-bottom plate. […]

[2] = system: C57BL/6J mice injected with AAV (LacZ transgene); experiment: In vivo mouse AAV model: intracellular cytokine staining of splenocytes; settings: chow 30 mg/kg from 15 days prior to AAV; day 21; versus AAV group; N=10
Method: as §1
Intracellular cytokine staining. Splenocytes were harvested from mouse spleens, and 2 million cells were seeded on a 96-well U-bottom plate. The cells were centrifuged at 2,000 rpm for 5 minutes and then resuspended with 100 μl of the RPMI containing 10% FBS and 1×2-mercaptoethanol. 10 μg/ml concentration of AAVrh32.33 overlapping peptide, AAVrh32.33 LacZ immunodominant peptide, and LacZ immunodominant peptide were prepared in the RPMI1640 containing 10% FBS, 1×2-mercaptoethanol, and 1:500 GolgiStop. For the positive control, 0.10 μg/ml PMA and 2 μg/ml Ionomycin solution were prepared in the RPIM1640 containing 10% FBS, 1×2-mercaptoethanol, and 1:500 GolgiStop. Then, 100 μl of the prepared solution was added to the cells, resulting in a final concentration of 5 μg/ml (or 0.05 μg/ml PMA and 1 μg/ml Ionomycin). The cells were incubated at 37° C. 5% CO2 incubator overnight to stimulate the cells. The next day, the cells were centrifuged at 2,000 rpm for 5 minutes, and then washed with the FACS buffer one time. The cells were stained with an antibody cocktail (1:100 anti-CD4 FITC, 1:100 anti-CD8a PerCP-Cy5.5, 1:100 anti-CD44 Pacific Blue, 1:100 Live/Dead Cell Stain Kit) for 30 minutes at 4° C. […]

## CC[C@@H]1[C@H](F)C(=O)N[C@@H]1COc1nccc2cc(C(N)=O)c(OC)cc12 [zimlovisertib, 1-[[(2S,3S,4S)-3-Ethyl-4-fluoro-5-oxo-2-pyrrolidinyl]methoxy]-7-methoxy-6-isoquinolinecarboxamide]
[1]
  CD44+CD62L+ effector memory cells in PBMCs: significant reduction
  LacZ tetramer positive CD8 T cells in PBMCs: significant reduction
[2]
  Interferon gamma producing activated CD8 T cells, splenocytes stimulated with AAV immunodominant peptide: reduce significantly
  Interferon gamma producing activated CD8 T cells, splenocytes stimulated with AAV peptide pools: reduce significantly
  Interferon gamma producing activated CD8 T cells, splenocytes stimulated with LacZ immunodominant peptide: reduce significantly

From patent US20230405151A1, “USE OF IRAK4 MODULATORS FOR GENE THERAPY” (Genzyme Corporation, priority 2022, published 2023)
